Experimental findings from US20230104487A1, “11-(4-CHLOROPHENYL)-4-(2,3-DIHYDRO-1H-INDOLE-1-CARBONYL)-3,11-DIMETHYL-5,10,DIOXATRICYCLO[7.4.0.0,2,6,]TRIDECA-1,3,6,8-TETRAEN-13-ONE AND DERIVATIVES AS DESTABILIZER OF CRY1 FOR THE TREATMENT OF CIRCADIAN RHYTHM ASSOCIATED DISEASES AND DISORDERS” (KOC UNIVERSITESI, priority 2019, published 2023) are described below.

Entries after “also recorded” stand apart in the source; their conditions may differ.

For data set [1], the system named is Cry1−/−/Cry2−/− mouse embryonic fibroblasts. In words: Circadian reporter assay in CRY double knockout MEFs (mPer2-dLuc). The data set is classed as cell-based. The note with it: DKO-MEF transfected with mPer2-luc. The protocol:
Luminescence values were recorded at 32° C. for each 30 minutes with 15 seconds integration time via Synergy H1 luminometer for a week. For LumiCycle, 400×10^3 U2-OS Bmal1-dLuc or NIH3T3 mPer2-dLuc cells were seeded to 35 mm plates and then procedure given above was followed with a change in the last step. Plates were sealed with vacuum grease and placed to LumiCycle. Each plate was recorded continuously every 10 minutes for 70 seconds at 37° C. via photomultiplier tubes. Period and amplitude data were obtained from LumiCycle Analysis software. To detect the effect of FORMULA I in the absence of CRYs, Cry1^−/−/Cry2^−/− mouse embryonic fibroblasts (CRYDKO MEFs) transiently transfected with pGL3-Per2-Luc (luciferase reporter) were used. 3×10^5 CRYDKO cells were seeded in 35 mm clear plates. Next day, cells were transfected with 4000 ng pGL3-Per2-Luc via Fugene6 transfection reagent according to the manufacturer's instruction. In short, 3:1 ratio of Fugene6 in μl against transfected DNA amount in μg was kept in transfections. 72 h after transfection cells were synchronized with DXM for two hours. Then, medium was changed with lumicycle medium having DMSO or molecule, sealed with vacuum grease, and placed to LumiCycle.
(A reporter such as luciferase makes a cellular process visible.)

The subject of another data set is C57BL/6J mice. The data set is described as follows: Repeated dose toxicity study, 5-day maximum tolerated dose. The data set is classed as in vivo. The protocol: The single dose toxicity data were used to assist the selection of the doses in this repeated dose toxicity study. C57BL/6J mice (n=6 per group) were treated with 40, 80 or 150 mg/kg doses of FORMULA I intraperitoneally for 5 days. Control mice (n=4) were only treated with vehicle (DMSO:Cremophor EL:0.9% NaCl; 2.5:15:82.5, v/v, i.p.). Throughout the study, animals were monitored for mortality, clinical signs, body weight changes, body temperature, food and water consumptions, behaviour assessment and gross findings at the terminal necropsy. Body weights and body temperatures of mice were measured every day as an index of toxicity. Within 48 h after the last dose of FORMULA I administration, blood was collected from mice by cardiac puncture under isoflurane anesthesia. Hematological and biochemical analyzes were performed in blood. Liver, spleen, kidneys and lungs were removed and fixed in 10% formalin solution for histological examinations.

The next data set deals with Per2. The data set is described as follows: Per2 mRNA in mouse liver (qPCR). The note with it: 25 and 50 mg/kg i.p., 6 h. Format: in vivo. The protocol:
FIGS. 5A-5G are an illustration of FORMULA I decreased the nuclear CRY1 in mice liver. FORMULA I (25 mg/kg or 50 mg/kg) or vehicle intraperitoneally administered to C57BL/6J mice. 6 h after the treated mice were sacrificed (n=3). […] FIGS. 5A-5B show an effect of FORMULA I in WCL. FIG. 5C-5D show an effect of FORMULA I in cytosolic fraction. FIGS. 5E-5F show an effect of FORMULA I in nuclear fraction of muce liver. […] (Data represent the mean±SEM, n=3 (with duplicates in RT-PCR) *: p<0.05 versus control by student t-test).
QIAGEN RNeasy Mini Kit was used to isolate the mRNA. Protocol provided by the manufacturer was followed. On-column DNase treatment was performed with the DNase enzyme provided with the kit. […] Quantity of RNA was determined by Nanodrop 2000 (Thermo Scientific). […] For quantitative real time PCR (qRT-PCR) analysis cDNAs were further diluted 5-fold (1:5). mRNA expression levels were calculated by qRT-PCR with the SYBR Green. […] 10 seconds denaturation, 57 to 62° C. for 20 seconds annealing (the degree is determined by primer type) and 72° C. for 30 seconds of elongation, 35 cycles. […]
Since CRYs are stabilized and degraded differently in cytosolic and nuclear compartments, we further analyzed the level of CRY1 in the cytosolic and nuclear fraction of the mouse liver. […]

[2] abbreviates: 150 mg/kg i.p. for 5 days, 3th day of injection.

What is called mortality is the percentage killed. High values mean fewer survivors, low ones more survivors. Take `Cc1c(C(=O)N2CCc3ccccc32)oc2ccc3c(c12)C(=O)CC(C)(c1ccc(Cl)cc1)O3` (stereo not shown) [FORMULA I, 11-(4-chlorophenyl)-4-(2,3-dihydro-1H-indole-1-carbonyl)-3,11-dimethyl-5,10,dioxatricyclo[7.4.0.0,2,6,]trideca-1,3,6,8-tetraen-13-one]: the “effect on rhythm in absence of CRYs” value in data set [1] is given as “had no effect”. Besides, in the data set with C57BL/6J mice (40 mg/kg i.p. for 5 days), the body temperature entry is “comparable to the control animals”. Moreover, the clinical signs entry is reported as “hyporeflexia” with C57BL/6J mice (150 mg/kg i.p. for 5 days); “no observed clinical signs” in the data set with C57BL/6J mice (40 and 80 mg/kg i.p. for 5 days). For the same compound, the deaths in the data set on C57BL/6J mice (setting [2]) is 1/6. In addition, the mortality in the data set with C57BL/6J mice (setting [2]) stood at 16.6%. Besides, the “highest mean body weight loss” value in the data set on C57BL/6J mice (150 mg/kg i.p., 3rd day of injection) was found to be 6.3%. Besides, in the data set with C57BL/6J mice (80 and 150 mg/kg i.p., first day), the “body temperature (mild hypothermia)” value is 33.4-35.8 °C. For the same compound, the tolerability result in the data set on C57BL/6J mice (doses of 5 and 80 mg/kg (so in the source), 5 days) was “well-tolerated”. The “Per2 mRNA level in liver” value in the data set on Per2 is on record as “significantly increased; also recorded: increased the mRNA level of Per2”.
